# Reference: patent publication US8716289B2, “Carbamate derivatives of alkyl-heterocycles, preparation thereof and therapeutic use thereof” (Sanofi, priority 2008, dated 2014)
row,melting point [°C],SMILES
1,97 to 99,CC(C)CC(OC(=O)NCCC1CCN(c2ccc3cc(Cl)ccc3n2)CC1)c1ccoc1 (racemic)
2,101 to 103,CC(C)CC(OC(=O)NCCC1CCN(c2cccc(-c3ccc(F)cc3)n2)CC1)c1ccoc1 (racemic)
3,168 to 170,"CN(C)C1(CCNC(=O)OC(c2nccn2C)C(F)(F)F)CN(c2nnc(Cl)c3ccccc23)C1 (racemic) [Compound 63, 2,2,2-trifluoro-1-(1-methyl-1H-imidazol-2-yl)ethyl {2-[1-(4-chlorophthalazin-1-yl)-3-dimethylaminoazetidin-3-yl]ethyl}-carbamate]"
4,196 to 198,"Cn1ccnc1C(OC(=O)NCCC1CCN(c2ccc3cc(Cl)ccc3n2)CC1)C(F)(F)F (racemic) [Compound 73, 2,2,2-trifluoro-1-(1-methyl-1H-imidazol-2-yl)ethyl {2-[1-(6-chloroquinolin-2-yl)piperidin-4-yl]ethyl}carbamate]"
5,171 to 173,"NC(=O)c1cc(COC(=O)NC2CCCN(c3nccc(C(F)(F)F)n3)CC2)on1 (racemic) [Compound 74, 3-carbamoylisoxazol-5-ylmethyl (±)[1-(4-trifluoromethylpyrimidin-2-yl)azepan-4-yl]carbamate]"
6,159 to 161,"CNC(=O)c1cc(COC(=O)NCC2CCN(c3nnc(Cl)c4ccccc34)C2)on1 (racemic) [Compound 79, 3-methylcarbamoylisoxazol-5-ylmethyl (±)[1-(4-chlorophthalazin-1-yl)pyrrolidin-3-ylmethyl]carbamate]"
7,139 to 140,"O=C(NCCC1CCN(c2ccc3cc(Cl)ccc3n2)CC1)OCc1cc(-c2ccc(Cl)cc2)no1 [Compound 3, 3-(4-chlorophenyl)isoxazol-5-ylmethyl 2-[1-(6-chloroquinolin-2-yl)piperidin-4-yl]ethylcarbamate]"
8,134 to 136,"O=C(NCCC1CCN(c2ccc3cc(Cl)ccc3n2)CC1)OCc1nc(-c2ccc(Cl)cc2)no1 [Compound 4, 3-(4-chlorophenyl)[1,2,4]oxadiazol-5-ylmethyl 2-[1-(6-chloroquinolin-2-yl)piperidin-4-yl]ethylcarbamate]"
9,110 to 112,"Cc1onc(-c2ccccc2)c1COC(=O)NCCC1CCN(c2ccc3cc(Cl)ccc3n2)CC1 [Compound 6, 5-methyl-3-phenylisoxazol-4-ylmethyl 2-[1-(6-chloroquinolin-2-yl)piperidin-4-yl]ethylcarbamate]"
10,96 to 98,"CC(C)c1noc(COC(=O)NCCC2CCN(c3ccc(-c4ccc(F)cc4)cn3)CC2)n1 [Compound 7, 3-isopropyl[1,2,4]oxadiazol-5-ylmethyl 2-[5′-(4-fluorophenyl)-3,4,5,6-tetrahydro-2H-[1,2′]bipyridinyl-4-yl]-ethylcarbamate]"
11,154 to 156,"Cn1ccc(COC(=O)NCCC2CCN(c3ccc(-c4ccc(F)cc4)cn3)CC2)n1 [Compound 8, 1-methyl-1H-pyrazol-3-ylmethyl 2-[5′-(4-fluorophenyl)-3,4,5,6-tetrahydro-2H-[1,2′]bipyridinyl-4-yl]ethylcarbamate]"
12,139 to 140,"CC(C)(C)c1nnc(COC(=O)NCCC2CCN(c3ccc(-c4ccc(F)cc4)cn3)CC2)s1 [Compound 10, 5-tert-butyl[1,3,4]thiadiazol-2-ylmethyl 2-[5′-(4-fluorophenyl)-3,4,5,6-tetrahydro-2H-[1,2′]bipyridinyl-4-yl]-ethylcarbamate]"
13,112 to 113,"CC(C)c1nc(COC(=O)NCCC2CCN(c3ccc(-c4ccc(F)cc4)cn3)CC2)no1 [Compound 11, 5-isopropyl[1,2,4]oxadiazol-3-ylmethyl 2-[5′-(4-fluorophenyl)-3,4,5,6-tetrahydro-2H-[1,2′]bipyridinyl-4-yl]-ethylcarbamate]"
14,152 to 153,"O=C(NCCC1CCN(c2ccc3cc(Cl)ccc3n2)CC1)OCc1nnc(-c2ccc(Cl)cc2)o1 [Compound 13, 5-(4-chlorophenyl)[1,3,4]oxadiazol-2-ylmethyl 2-[1-(6-chloroquinolin-2-yl)piperidin-4-yl]ethylcarbamate]"
15,154 to 156,"COc1ccc(-c2nnc(COC(=O)NCCC3CCN(c4ccc5cc(Cl)ccc5n4)CC3)o2)cc1 [Compound 14, 5-(4-methoxyphenyl)[1,3,4]oxadiazol-2-ylmethyl 2-[1-(6-chloroquinolin-2-yl)piperidin-4-yl]ethylcarbamate]"
16,160 to 162,"O=C(NCCC1CCN(c2ccc3cc(Cl)ccc3n2)CC1)OCc1nc(-c2ccc(F)cc2)no1 [Compound 15, 3-(4-fluorophenyl)[1,2,4]oxadiazol-5-ylmethyl 2-[1-(6-chloroquinolin-2-yl)piperidin-4-yl]ethylcarbamate]"
17,134 to 136,"O=C(NCCC1CCN(c2ccc3cc(Cl)ccc3n2)CC1)OCc1nc(-c2cccc(F)c2)no1 [Compound 16, 3-(3-fluorophenyl)[1,2,4]oxadiazol-5-ylmethyl 2-[1-(6-chloroquinolin-2-yl)piperidin-4-yl]ethylcarbamate]"

row,melting point [°C],SMILES
1,191 to 193,"O=C(NCCC1CCN(c2ccc3cc(Cl)ccc3n2)CC1)OCc1nsc(-c2ccc(Cl)cc2)n1 [Compound 17, 5-(4-chlorophenyl)[1,2,4]thiadiazol-3-ylmethyl 2-[1-(6-chloroquinolin-2-yl)piperidin-4-yl]ethylcarbamate]"
2,146 to 148,"O=C(NCCC1CCN(c2ccc3cc(Cl)ccc3n2)CC1)OCc1csnn1 [Compound 18, [1,2,3]thiadiazol-4-ylmethyl 2-[1-(6-chloroquinolin-2-yl)piperidin-4-yl]ethylcarbamate]"
3,200 to 202,"CNC(=O)c1cc(COC(=O)NCCC2CCN(c3ccc4cc(Cl)ccc4n3)CC2)on1 [Compound 20, 3-methylcarbamoylisoxazol-5-ylmethyl 2-[1-(6-chloroquinolin-2-yl)piperidin-4-yl]ethylcarbamate]"
4,206 to 208,"NC(=O)c1coc(COC(=O)NCCC2CCN(c3ccc(-c4ccc(F)cc4)cn3)CC2)n1 [Compound 21, 4-carbamoyloxazol-2-ylmethyl 2-[5′-(4-fluorophenyl)-3,4,5,6-tetrahydro-2H-[1,2′]bipyridinyl-4-yl]ethylcarbamate]"
5,155.5 to 157.5,"CNC(=O)c1cc(COC(=O)NCCC2CCN(c3cccc(-c4ccc(F)cc4)n3)CC2)on1 [Compound 22, 3-methylcarbamoylisoxazol-5-ylmethyl 2-[6′-(4-fluoro-phenyl)-3,4,5,6-tetrahydro-2H-[1,2′]bipyridinyl-4-yl]-ethylcarbamate]"
6,200 to 202,"NC(=O)c1cc(COC(=O)NCCC2CCN(c3ccc4cc(F)ccc4n3)CC2)on1 [Compound 23, 3-carbamoylisoxazol-5-ylmethyl 2-[1-(6-fluoroquinolin-2-yl)piperidin-4-yl]ethylcarbamate]"
7,172 to 174,"NC(=O)c1cc(COC(=O)NCCC2CCN(c3cccc(-c4ccc(F)cc4)n3)CC2)on1 [Compound 24, 3-carbamoylisoxazol-5-ylmethyl 2-[6′-(4-fluorophenyl)-3,4,5,6-tetrahydro-2H-[1,2′]bipyridinyl-4-yl]ethylcarbamate]"
8,180 to 182,"CNC(=O)c1cc(COC(=O)NCCC2CCN(c3ccc4cc(F)ccc4n3)CC2)on1 [Compound 25, 3-methylcarbamoylisoxazol-5-ylmethyl 2-[1-(6-fluoroquinolin-2-yl)piperidin-4-yl]ethylcarbamate]"
9,191 to 193,"CNC(=O)c1cc(COC(=O)NCCC2CCN(c3ccc(-c4ccc(F)cc4)cn3)CC2)on1 [Compound 26, 3-methylcarbamoylisoxazol-5-ylmethyl 2-[5′-(4-fluorophenyl)-3,4,5,6-tetrahydro-2H-[1,2′]bipyridinyl-4-yl]-ethylcarbamate]"
10,81 to 83,"CN(C)C(=O)c1cc(COC(=O)NCCC2CCN(c3cccc(-c4ccc(F)cc4)n3)CC2)on1 [Compound 27, 3-dimethylcarbamoylisoxazol-5-ylmethyl 2-[6′-(4-fluorophenyl)-3,4,5,6-tetrahydro-2H-[1,2′]bipyridinyl-4-yl]-ethylcarbamate]"
11,172 to 176,"NC(=O)c1cc(COC(=O)NCCC2CCN(c3ccc(-c4cccc(F)c4)cn3)CC2)on1 [Compound 28, 3-carbamoylisoxazol-5-ylmethyl 2-[5′-(3-fluorophenyl)-3,4,5,6-tetrahydro-2H-[1,2′]bipyridinyl-4-yl]ethylcarbamate]"
12,149 to 151,"CN(C)C(=O)c1cc(COC(=O)NCCC2CCN(c3ccc(-c4ccc(F)cc4)cn3)CC2)on1 [Compound 30, 3-dimethylcarbamoylisoxazol-5-ylmethyl 2-[5′-(4-fluorophenyl)-3,4,5,6-tetrahydro-2H-[1,2′]bipyridinyl-4-yl]-ethylcarbamate]"
13,114 to 116,"CN(C)C(=O)c1cc(COC(=O)NCCC2CCN(c3ccc4cc(Cl)ccc4n3)CC2)on1 [Compound 31, 3-dimethylcarbamoylisoxazol-5-ylmethyl 2-[1-(6-chloroquinolin-2-yl)piperidin-4-yl]ethylcarbamate]"
14,150 to 152,"CNC(=O)c1cc(COC(=O)NCCC2CCN(c3cncc(-c4ccc(F)cc4)n3)CC2)on1 [Compound 32, 3-methylcarbamoylisoxazol-5-ylmethyl 2-{1-[6-(4-fluorophenyl)pyrazin-2-yl]piperidin-4-yl}ethylcarbamate]"
15,136 to 138,"CCOC(=O)c1cc(COC(=O)NCC2(F)CCN(c3nccc(C(F)(F)F)n3)CC2)on1 [Compound 51, ethyl 5-[4-fluoro-1-(4-trifluoromethylpyrimidin-2-yl)-piperidin-4-ylmethylcarbamoyloxymethyl]isoxazole-3-carboxylate]"
16,180 to 182,"O=C(NCCC1CCN(c2ccc3cc(Cl)ccc3n2)CC1)OCc1cc(C(=O)O)no1 [Compound 53, 5-{2-[1-(6-chloroquinolin-2-yl)piperidin-4-yl]ethylcarbamoyloxymethyl}isoxazole-3-carboxylic acid]"
17,104 to 106,"CC(C)c1nc(COC(=O)NCC2CCN(c3nccc(C(F)(F)F)n3)CC2)no1 [Compound 55, 5-isopropyl[1,2,4]oxadiazol-3-ylmethyl [1-(4-trifluoromethylpyrimidin-2-yl)piperidin-4-yl]methylcarbamate]"
